Molecular target: MASP-2 CCP2-SP (Homo sapiens (Human), UniProt O00187)
Experiment: MASP-2 co-crystallization, X-ray crystallography and structure analysis (H-bonds, van der Waals contacts);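 on Ligand-pharmacophore element distance, pharmacophore element C2: distance from averaged pharmacophore element to bound ligand; missing value means element absent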;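 on Ligand-pharmacophore element distance, pharmacophore element C3: distance from averaged pharmacophore element to bound ligand; missing value means element absent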;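 on Ligand-pharmacophore element distance, pharmacophore element C4: distance from averaged pharmacophore element to bound ligand; missing value means element absent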;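 on Ligand-pharmacophore element distance, pharmacophore element C5: distance from averaged pharmacophore element to bound ligand; missing value means element absent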
Parameters: van der Waals contact distance, MASP-2 HIS 483 atom CD2 / van der Waals contact distance, MASP-2 HIS 483 atom NE2 / van der Waals contact distance, SER 654 C to compound atom / van der Waals contact distance, SER 654 O to compound atom / van der Waals contact distance, TRP 655 C to compound atom / van der Waals contact distance, MASP-2 GLY 528 atom CA / van der Waals contact distance TRP 655 atom CZ3 / van der Waals contact distance TRP 655 atom N / van der Waals contact distance TRP 655 atom CE3 / van der Waals contact distance GLY 656 atom C / van der Waals contact distance GLY 656 atom CA / van der Waals contact distance GLY 656 atom O / van der Waals contact distance, MASP-2 TYR 607 atom CD1 / van der Waals contact distance, MASP-2 PRO 606 atom O / d(C3,CA1) / d(CA1,N1)2 / d(H4,O1) / d(H4,O2) / d(O1,O2) / d(CA1,O2) / d(CA6,O1) / d(CA6,O2) / d(CA1,C5) / d(O2,H3) / d(N2,C2) / d(CA5,N2) / d(N2,C4) / d(N2,C6) / d(N2,CA3) / d(N2,O3) / d(O4,H2): unit not given beside the values
Conditions: for H-bond distance to MASP-2 ASP 627 atom OD2: ASP 627 OD2; for H-bond distance to MASP-2 GLY 656 atom N: GLY 656 N; for H-bond distance to MASP-2 GLY 656 atom O: GLY 656 O; for H-bond distance to MASP-2 SER 654 atom O: SER 654 O; for H-bond distance to MASP-2 SER 657 atom O: SER 657 O; for van der Waals contact distance, MASP-2 HIS 483 atom CD2 / van der Waals contact distance, MASP-2 HIS 483 atom NE2: Table A2-1; for van der Waals contact distance, MASP-2 PHE 529 atom CD2: Table A2-3; for van der Waals contact distance, VAL 653 CG1 to compound atom: Table A2-11; for Ligand-pharmacophore element distance, pharmacophore element C2 / Ligand-pharmacophore element distance, pharmacophore element C3 / Ligand-pharmacophore element distance, pharmacophore element C4 / Ligand-pharmacophore element distance, pharmacophore element C5 / Ligand-pharmacophore element distance, pharmacophore element C6 / Ligand-pharmacophore element distance, pharmacophore element C7 / Ligand-pharmacophore element distance, pharmacophore element CA1 / Ligand-pharmacophore element distance, pharmacophore element CA2 / Ligand-pharmacophore element distance, pharmacophore element CA3 / Ligand-pharmacophore element distance, pharmacophore element CA4 / Ligand-pharmacophore element distance, pharmacophore element CA5 / Ligand-pharmacophore element distance, pharmacophore element CA6: Table A4-1; for d(C3,CA1) / d(CA1,N1)2 / d(CA1,O1) / d(CA1,O2) / d(H4,O1) / d(H4,O2) / d(O1,O2): Table A5-1 pharmacophore: distance between elements, S2/S1 region; for a(C3, CA1, O1) / a(CA1, O1, O2) / a(O1, O2, H4) / a(N1, CA1, O1) b): Table A6-1 pharmacophore angle; for a(N1, CA1, O1) b): Methyl-amino-pyridine compounds
Method in brief: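 Human MASP-2 CCP2-SP (± 6His) expressed in E. coli and crystallized; crystals soaked in crystallization solution containing inhibitor, cryoprotected with 20% glycerol or frozen directly. Synchrotron data at 1.0 wavelength; molecular replacement from 1Q3X, partial refinement; one ligand pose analyzed; LigPlot+ contacts may include H-bonds.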

[1] = Table A2-7: SER 628 (CB, O, OG)
[2] = Table A2-9, ARG 630, AA atoms CG, CZ
[3] = Table A5-2 pharmacophore distance, S3/S4 region
[4] = Table A7-1, between pharmacophore elements of the bound compound

MASP-2 CCP2-SP, sequence (O00187 445-686): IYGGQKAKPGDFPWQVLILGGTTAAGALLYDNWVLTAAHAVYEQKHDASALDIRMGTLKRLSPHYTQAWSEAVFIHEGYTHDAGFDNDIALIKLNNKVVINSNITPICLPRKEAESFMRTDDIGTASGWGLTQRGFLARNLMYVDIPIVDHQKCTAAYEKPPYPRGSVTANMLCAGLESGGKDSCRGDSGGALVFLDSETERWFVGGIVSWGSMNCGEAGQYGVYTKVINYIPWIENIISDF
MASP-2 CCP2-SP, sequence (O00187 364-432 partner): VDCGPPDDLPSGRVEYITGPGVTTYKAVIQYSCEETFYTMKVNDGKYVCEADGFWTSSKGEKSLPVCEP

Compound: Cc1nc(N)ccc1CNC(=O)[C@H](C)NC(=O)[C@H]1C[C@@H](Cc2ccccc2)CCN1 [compound 1353, (2R,4S)—N—((S)-1-(((6-Amino-2-methylpyridin-3-yl)methyl)amino)-1-oxopropan-2-yl)-4-benzylpiperidine-2-carboxamide]
- H-bond distance to MASP-2 ASP 627 atom OD2 (Table A1 (H-Bonds)): 3.17
- H-bond distance to MASP-2 GLY 656 atom N (Table A1 (H-Bonds)): 3.15
- H-bond distance to MASP-2 GLY 656 atom O (Table A1 (H-Bonds)): 2.85
- H-bond distance to MASP-2 SER 654 atom O (Table A1 (H-Bonds)): 3
- H-bond distance to MASP-2 SER 657 atom O (Table A1 (H-Bonds)): 2.91
- van der Waals contact distance, MASP-2 HIS 483 atom CD2: 3.77
- van der Waals contact distance, MASP-2 HIS 483 atom NE2: 3.67
- van der Waals contact distance, MASP-2 PHE 529 atom CD2: 3.68
- van der Waals contact distance, MASP-2 TYR 607 atom CD1 (Table A2-4): 3.75
- van der Waals contact distance, MASP-2 amino acid atom to compound atom [1]: 3.66
- van der Waals contact distance, MASP-2 amino acid atom to compound atom [2]: 3.74
- van der Waals contact distance, VAL 653 CG1 to compound atom: 3.3
- van der Waals contact distance, TRP 655 CA to compound atom (Table A2-12): 3.3
- Ligand-pharmacophore element distance, pharmacophore element C2: 0.58
- Ligand-pharmacophore element distance, pharmacophore element C3: 0.13
- Ligand-pharmacophore element distance, pharmacophore element C4: 0
- Ligand-pharmacophore element distance, pharmacophore element C5: 0
- Ligand-pharmacophore element distance, pharmacophore element C6: 0
- Ligand-pharmacophore element distance, pharmacophore element C7: 0
- Ligand-pharmacophore element distance, pharmacophore element CA1: 0.61
- Ligand-pharmacophore element distance, pharmacophore element CA2: 0.5
- Ligand-pharmacophore element distance, pharmacophore element CA3: 0
- Ligand-pharmacophore element distance, pharmacophore element CA4: 0
- Ligand-pharmacophore element distance, pharmacophore element CA5: 0
- Ligand-pharmacophore element distance, pharmacophore element CA6: 0
- d(C3,CA1): 2.85
- d(CA1,N1)2: 1.36
- d(CA1,O1): 4.38
- d(CA1,O2): 3.79
- d(H4,O1): 4.38
- d(H4,O2): 3.72
- d(O1,O2): 3.27
- d(N2,C2) [3]: 1.45
- d(N2,CA2) [3]: 6.50
- d(O2,H3) [3]: 4.10
- d(O2,N2) [3]: 2.69
- a(C3, CA1, O1): 149.99
- a(CA1, O1, O2): 103.61
- a(O1, O2, H4): 133.22
- a(N1, CA1, O1) b): 173.73
- a(O1, O2, H3) (Table A6-2 pharmacophore angle): 146.74
- a(O1, O2, N2) (Table A6-2 pharmacophore angle): 137.66
- a(O2, N2, C2) (Table A6-2 pharmacophore angle): 130.69
- a(O2, N2, CA2) (Table A6-2 pharmacophore angle): 157.19
- Pharmacophore torsion angle a(C3, CA1, O1, H4) [4]: 23.38
- Pharmacophore torsion angle a(H4, O1, O2, H3) [4]: 51.34
- Pharmacophore torsion angle a(H4, O1, O2, N2) [4]: 136.30
- Pharmacophore torsion angle a(N1, CA1, O1, H4) [4]: 3.14
- Pharmacophore torsion angle a(O1, H4, O2, CA1) [4]: −84.72
- Pharmacophore torsion angle a(O1, O2, N2, C2) [4]: 126.15
- Pharmacophore torsion angle a(O1, O2, N2, CA2) (Table A7-2, between pharmacophore elements of the bound compound): 120.30

Compound: Cc1nc(N)ccc1CNC(=O)[C@H](C)NC(=O)c1cc(Cc2ccccc2)n[nH]1 [compound 1367, (S)—N-(1-(((6-Amino-2-methylpyridin-3-yl)methyl)amino)-1-oxopropan-2-yl)-3-benzyl-1H-pyrazole-5-carboxamide]
- H-bond distance to MASP-2 ASP 627 atom OD2 (Table A1 (H-Bonds)): 3.15
- H-bond distance to MASP-2 GLY 656 atom N (Table A1 (H-Bonds)): 3.15
- H-bond distance to MASP-2 GLY 656 atom O (Table A1 (H-Bonds)): 2.77
- H-bond distance to MASP-2 SER 628 atom O (Table A1 (H-Bonds), SER 628 O): 3.15
- H-bond distance to MASP-2 SER 654 atom O (Table A1 (H-Bonds)): 3.08
- H-bond distance to MASP-2 SER 657 atom O (Table A1 (H-Bonds)): 2.88
- van der Waals contact distance, MASP-2 HIS 483 atom CD2: 3.71
- van der Waals contact distance, MASP-2 HIS 483 atom NE2: 3.59
- van der Waals contact distance, MASP-2 PHE 529 atom CD2: 3.8
- van der Waals contact distance, MASP-2 amino acid atom to compound atom (Table A2-6: SER 611 (CB, OG), ASP 627 (CG, OD1, OD2), SER 628 (C, CA)): 3.71
- van der Waals contact distance, MASP-2 amino acid atom to compound atom [1]: 3.56
- van der Waals contact distance, MASP-2 amino acid atom to compound atom [2]: 3.86
- van der Waals contact distance, MASP-2 amino acid atom to compound atom (Table A2-9 second part, ARG 630, AA atoms N, NE, NH1): 3.8
- van der Waals contact distance, VAL 653 CG1 to compound atom: 3.35
- van der Waals contact distance, SER 654 O to compound atom (Table A2-12): 3.87
- van der Waals contact distance, TRP 655 CA to compound atom (Table A2-12): 3.29
- van der Waals contact distance TRP 655 atom CE3 (Table A2-13, MASP-2 TRP 655 CE3, compound atom in line below): 3.89
- van der Waals contact distance TRP 655 atom CZ3 (Table A2-13, MASP-2 TRP 655 CZ3): 3.86
- Ligand-pharmacophore element distance, pharmacophore element C2: 0
- Ligand-pharmacophore element distance, pharmacophore element C3: 0.13
- Ligand-pharmacophore element distance, pharmacophore element C4: 0
- Ligand-pharmacophore element distance, pharmacophore element C5: 0
- Ligand-pharmacophore element distance, pharmacophore element C6: 0
- Ligand-pharmacophore element distance, pharmacophore element C7: 0
- Ligand-pharmacophore element distance, pharmacophore element CA1: 0.5
- Ligand-pharmacophore element distance, pharmacophore element CA2: 0.57
- Ligand-pharmacophore element distance, pharmacophore element CA3: 0
- Ligand-pharmacophore element distance, pharmacophore element CA4: 0
- Ligand-pharmacophore element distance, pharmacophore element CA5: 3.27
- Ligand-pharmacophore element distance, pharmacophore element CA6: 0
- d(C3,CA1): 2.85
- d(CA1,N1)2: 1.39
- d(CA1,O1): 4.35
- d(CA1,O2): 5.37
- d(H4,O1): 4.37
- d(H4,O2): 5.63
- d(O1,O2): 4.72
- d(O2,H3) [3]: 2.68
- a(C3, CA1, O1): 149.67
- a(CA1, O1, O2): 129.48
- a(O1, O2, H4): 125.36
- a(N1, CA1, O1) b): 173.97
- a(O1, O2, H3) (Table A6-2 pharmacophore angle): 107.78
- Pharmacophore torsion angle a(C3, CA1, O1, H4) [4]: 23.21
- Pharmacophore torsion angle a(H4, O1, O2, H3) [4]: 42.45
- Pharmacophore torsion angle a(N1, CA1, O1, H4) [4]: 1.25
- Pharmacophore torsion angle a(O1, H4, O2, CA1) [4]: −85.54

From patent US12195427B2, “MASP-2 inhibitors and methods of use” (priority 2018, dated 2025)
